Measured values from patent publication US20240277698A1, “METHODS OF USING ALDOSTERONE SYNTHASE INHIBITORS” (CINCOR PHARMA, INC., priority 2021, published 2024).

Tests used:
aldosterone synthase = target: T1, aldosterone synthase (Homo sapiens, UniProt P19099); assay: MAD study: urine aldosterone and tetrahydroaldosterone; format: in vivo; settings: mean
T1 construct: synthesized in the adrenal cortex by aldosterone synthase; endogenous in cells; host or cells: adrenal cortex of healthy human subjects (in vivo, oral dosing)
T1 sequence (P19099 25-503): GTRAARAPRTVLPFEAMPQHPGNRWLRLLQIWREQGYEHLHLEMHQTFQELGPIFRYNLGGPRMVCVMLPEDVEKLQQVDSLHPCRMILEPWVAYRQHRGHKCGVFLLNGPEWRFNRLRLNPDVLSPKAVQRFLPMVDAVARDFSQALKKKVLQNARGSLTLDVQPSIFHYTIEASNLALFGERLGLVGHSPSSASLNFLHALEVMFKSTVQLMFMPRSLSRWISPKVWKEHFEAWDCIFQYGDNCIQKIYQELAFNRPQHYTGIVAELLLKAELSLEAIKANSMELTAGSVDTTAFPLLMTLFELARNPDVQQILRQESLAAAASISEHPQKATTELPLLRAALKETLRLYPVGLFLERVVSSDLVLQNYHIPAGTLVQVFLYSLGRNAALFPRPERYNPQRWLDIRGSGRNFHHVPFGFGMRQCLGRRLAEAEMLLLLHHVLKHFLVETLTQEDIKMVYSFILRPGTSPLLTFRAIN
Source text: For each subject, the study consisted of: • A screening period of up to 28 days; • A 5-day inpatient run-in period during which subjects adhered to a controlled, standardized diet and underwent baseline PD assessments; • A 15-day inpatient treatment period, during which subjects received (R)-compound 1 or placebo once daily for 10 days while adhering to a controlled, standardized diet, followed by PK and PD sampling over an additional 5 days; and • A follow-up visit 3 days (1 day) after discharge from the clinical unit. • A cortisol stimulation test (Cohorts 1 and 2 only) and standing aldosterone assessment (all cohorts) were performed on Days 1 and 10. Serial blood samples for PK and PD were obtained prior to and at specified time points over 24 hours after dosing on Day 1 as well as prior to and at specified time points over 120 hours after dosing on Day 10. In addition, blood samples for PK were collected prior to dosing on Days 8 and 9. Urine for PK and PD measurements was collected over 24 hours starting just prior to dosing on Day 1 as well as over 120 hours starting just prior to dosing on Day 10.
Urine PD measures included concentrations of • Aldosterone; • Cortisol (free and total); and • Tetrahydroaldosterone.
For analysis, the urine PD concentrations were converted to total analyte amounts: Total amount (unit)=concentration (unit/volume) • urine volume

[1] = SAD study Part 2: adverse events under low/normal salt diet and 3 mg IV dose; format: in vivo
Method: There were no dose-related increases in the incidence of AEs (Table 15). No severe AEs, SAEs, withdrawals due to AEs, or deaths were reported. A larger proportion of subjects reported AEs during the 3 mg IV dose (75%) compared to any of the oral doses (maximum of 66.7% with 3 mg during the low salt diet and with 10 mg during both the low and normal salt diet). Overall, the most frequently reported AEs were nasopharyngitis, asthenia, and dizziness. AEs reported by >1 subject at any dose level and with either salt diet were asthenia (2 subjects [33.3%] with 10 mg low salt diet, 2 subjects [33.3%] with placebo low salt diet), nasopharyngitis (3 subjects [37.5%] with 3 mg IV, 2 subjects [33.3%] with 10 mg low salt diet), dizziness (2 subjects [33.3%] with 3 mg low salt diet) and gingival pain (2 subjects [33.3%] with 10 mg low salt diet). Only 1 AE (dizziness) reported by a subject receiving 10 mg (R)-compound 1 under normal salt diet conditions was considered related to the study drug. One case of fractured coccyx and one case of concussion (both reported for subjects who received the IV dose) were moderate in intensity and all other AEs were mild in intensity. […]

For CCC(=O)N[C@@H]1CCCc2c(-c3ccc4c(c3)CCC(=O)N4C)cncc21 [(R)-Compound 1, (R)—N-(4-(1-methyl-2-oxo-1,2,3,4-tetrahydroquinolin-6-yl)-5,6,7,8-tetrahydroisoquinolin-8-yl)propionamide], the “Urine aldosterone (ng), Percent change from baseline (Day −1) to Day 1 0-24 hr” value (aldosterone synthase; 0.5 mg QD, normal salt diet) was −23.7290%, the “Urine aldosterone (ng), Percent change from baseline (Day −1) to Day 10 0-24 hr” value (aldosterone synthase; 0.5 mg QD, normal salt diet) was 4.2728% and the “Urine tetrahydroaldosterone (ng), Percent change from baseline (Day −1) to Day 1 0-24 hr” value (aldosterone synthase; 0.5 mg QD, normal salt diet) was −12.0171%. The “Urine tetrahydroaldosterone (ng), Percent change from baseline (Day −1) to Day 10 0-24 hr” value (aldosterone synthase; 0.5 mg QD, normal salt diet) was 11.0511%, the “Urine aldosterone (ng), Percent change from baseline (Day −1) to Day 1 0-24 hr” value (aldosterone synthase; 1.5 mg QD, normal salt diet) was −67.6229% and the “Urine aldosterone (ng), Percent change from baseline (Day −1) to Day 10 0-24 hr” value (aldosterone synthase; 1.5 mg QD, normal salt diet) was −65.6831%. For the same molecule, the “Urine tetrahydroaldosterone (ng), Percent change from baseline (Day −1) to Day 1 0-24 hr” value (aldosterone synthase; 1.5 mg QD, normal salt diet) was −47.0556%, the “Urine tetrahydroaldosterone (ng), Percent change from baseline (Day −1) to Day 10 0-24 hr” value (aldosterone synthase; 1.5 mg QD, normal salt diet) was −60.9034% and the “Urine aldosterone (ng), Percent change from baseline (Day −1) to Day 1 0-24 hr” value (aldosterone synthase; 2.5 mg QD, low salt diet) was −61.1877%. For the same molecule, the “Urine aldosterone (ng), Percent change from baseline (Day −1) to Day 10 0-24 hr” value (aldosterone synthase; 2.5 mg QD, low salt diet) was −19.3985%, the “Urine tetrahydroaldosterone (ng), Percent change from baseline (Day −1) to Day 1 0-24 hr” value (aldosterone synthase; 2.5 mg QD, low salt diet) was −26.0540% and the “Urine tetrahydroaldosterone (ng), Percent change from baseline (Day −1) to Day 10 0-24 hr” value (aldosterone synthase; 2.5 mg QD, low salt diet) was −6.2967%. For the same molecule, the “Urine aldosterone (ng), Percent change from baseline (Day −1) to Day 1 0-24 hr” value (aldosterone synthase; 2.5 mg QD, normal salt diet) was −71.7141%, the “Urine aldosterone (ng), Percent change from baseline (Day −1) to Day 10 0-24 hr” value (aldosterone synthase; 2.5 mg QD, normal salt diet) was −50.7592% and the “Urine tetrahydroaldosterone (ng), Percent change from baseline (Day −1) to Day 1 0-24 hr” value (aldosterone synthase; 2.5 mg QD, normal salt diet) was −59.6517%. The “Urine tetrahydroaldosterone (ng), Percent change from baseline (Day −1) to Day 10 0-24 hr” value (aldosterone synthase; 2.5 mg QD, normal salt diet) was −55.1771%, the “Urine aldosterone (ng), Percent change from baseline (Day −1) to Day 1 0-24 hr” value (aldosterone synthase; 5.0 mg QD, low salt diet) was −83.5768% and the “Urine tetrahydroaldosterone (ng), Percent change from baseline (Day −1) to Day 1 0-24 hr” value (aldosterone synthase; 5.0 mg QD, low salt diet) was −67.5905%. For the same molecule, the “Urine tetrahydroaldosterone (ng), Percent change from baseline (Day −1) to Day 10 0-24 hr” value (aldosterone synthase; 5.0 mg QD, low salt diet) was −64.5164%, the “Any AE, % of subjects” value ([1]; 1 mg, low salt diet, N = 6) was “(33.3) %” and the “Any AE, number of subjects” value ([1]; 1 mg, low salt diet, N = 6) was 2. For the same molecule, the “Related AE, number of subjects” value ([1]; 1 mg, low salt diet, N = 6) was 0, the “Any AE, % of subjects” value ([1]; 1 mg, normal salt diet, N = 6) was “(50.0) %” and the “Any AE, number of subjects” value ([1]; 1 mg, normal salt diet, N = 6) was 3. For the same molecule, the “Related AE, number of subjects” value ([1]; 1 mg, normal salt diet, N = 6) was 0, the “proportion of subjects reporting AEs” value ([1]; 3 mg IV dose) was 75% and the “Any AE, % of subjects” value ([1]; 3 mg IV, N = 8) was “(75.0) %”. For the same molecule, the “Any AE, number of subjects” value ([1]; 3 mg IV, N = 8) was 6, the “Related AE, number of subjects” value ([1]; 3 mg IV, N = 8) was 0 and the “proportion of subjects reporting AEs, maximum of the oral doses” value ([1]; 3 mg low salt diet, 10 mg low and normal salt diet) was no more than 66.7%. The “Any AE, % of subjects” value ([1]; 3 mg, low salt diet, N = 6) was “(66.7) %”, the “Any AE, number of subjects” value ([1]; 3 mg, low salt diet, N = 6) was 4 and the “Related AE, number of subjects” value ([1]; 3 mg, low salt diet, N = 6) was 0. The “Any AE, % of subjects” value ([1]; 3 mg, normal salt diet, N = 6) was “(33.3) %”, the “Any AE, number of subjects” value ([1]; 3 mg, normal salt diet, N = 6) was 2 and the “Related AE, number of subjects” value ([1]; 3 mg, normal salt diet, N = 6) was 0. The “AEs considered related to the study drug (dizziness)” value ([1]; 10 mg normal salt diet) was 1 AE, the “Any AE, % of subjects” value ([1]; 10 mg, low salt diet, N = 6) was “(66.7) %” and the “Any AE, number of subjects” value ([1]; 10 mg, low salt diet, N = 6) was 4. The “Related AE, number of subjects” value ([1]; 10 mg, low salt diet, N = 6) was 0, the “Any AE, % of subjects” value ([1]; 10 mg, normal salt diet, N = 6) was “(66.7) %” and the “Any AE, number of subjects” value ([1]; 10 mg, normal salt diet, N = 6) was 4. The “Related AE, % of subjects” value ([1]; 10 mg, normal salt diet, N = 6) was “(16.7) %” and the “Related AE, number of subjects” value ([1]; 10 mg, normal salt diet, N = 6) was 1.
